Each compound was assayed against hQC (Homo sapiens, UniProt Q16769) (assay: Inhibitor assay for glutaminyl cyclase activity (fluorometric, H-Gln-βNA / H-Gln-AMC)). Conditions: compound from preparative synthesis, purified; read-out: IC50 hQC.
Assay type: biochemical
How it was run: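 Ki values came from fitting progress curves to a competitive inhibition model; rapid screens used 4 mM inhibitor with substrate at KM. QC activity was read at 30 °C via auxiliary pyroglutamyl aminopeptidase releasing βNA (0.2 mM H-Gln-βNA, 0.2 M Tris pH 8.0, 20 mM EDTA) or AMC (0.05 M Tris pH 8.0, 5 mM EDTA).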

Chain of hQC (Q16769 29-361): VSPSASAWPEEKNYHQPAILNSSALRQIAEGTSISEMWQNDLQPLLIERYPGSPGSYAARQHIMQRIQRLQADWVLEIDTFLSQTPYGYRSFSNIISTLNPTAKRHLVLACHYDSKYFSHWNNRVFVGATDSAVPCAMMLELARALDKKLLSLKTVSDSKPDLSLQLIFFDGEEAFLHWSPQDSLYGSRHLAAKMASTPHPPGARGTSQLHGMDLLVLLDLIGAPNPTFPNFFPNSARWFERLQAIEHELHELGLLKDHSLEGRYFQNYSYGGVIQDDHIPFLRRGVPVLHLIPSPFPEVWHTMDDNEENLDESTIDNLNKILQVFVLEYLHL

Row | IC50 [nM] | Structure (SMILES)
1 | 804 | O=C1C(O)=C(c2c[nH]c3ccccc23)C(C2CCC=CO2)N1CCCn1ccnc1 (stereo not drawn) [Compound 128, 5-(3,4-Dihydro-2H-pyran-2-yl)-3-hydroxy-1-(3-imidazol-1-yl-propyl)-4-(1H-indol-3-yl)-1,5-dihydro-pyrrol-2-one]
2 | 134 | O=C1C(O)=C(c2c[nH]c3ccccc23)C(c2cccc(Cl)c2)N1CCCn1ccnc1 (stereo not drawn) [Compound 143, 5-(3-Chloro-phenyl)-3-hydroxy-1-(3-imidazol-1-yl-propyl)-4-(1H-indol-3-yl)-1,5-dihydro-pyrrol-2-one]
3 | 1040 | O=C1C(O)=C(c2c[nH]c3ccccc23)C(c2ccccc2F)N1CCCn1ccnc1 (stereo not drawn) [Compound 144, 5-(2-Fluoro-phenyl)-3-hydroxy-1-(3-imidazol-1-yl-propyl)-4-(1H-indol-3-yl)-1,5-dihydro-pyrrol-2-one]
4 | 152 | Cc1ccc(C2C(c3ccc(O)cc3)=C(O)C(=O)N2CCCn2ccnc2)cc1 (stereo not drawn) [Compound 148, 3-Hydroxy-4-(4-hydroxy-phenyl)-1-(3-imidazol-1-yl-propyl)-5-p-tolyl-1,5-dihydro-pyrrol-2-one]

Same assay, conditions: read-out: IC50

Row | Structure (SMILES) | IC50 [nM]
5 | O=C1C(O)=C(c2c[nH]c3ccccc23)C(C2CCC=CO2)N1CCCn1ccnc1 (stereo not drawn) [Compound 128, 5-(3,4-Dihydro-2H-pyran-2-yl)-3-hydroxy-1-(3-imidazol-1-yl-propyl)-4-(1H-indol-3-yl)-1,5-dihydro-pyrrol-2-one] | 40
6 | O=C1C(O)=C(c2c[nH]c3ccccc23)C(C2=CCCCC2)N1CCCn1ccnc1 (stereo not drawn) [Compound 129, 5-Cyclohex-1-enyl-3-hydroxy-1-(3-imidazol-1-yl-propyl)-4-(1H-indol-3-yl)-1,5-dihydro-pyrrol-2-one] | 400
7 | Cc1ccc2c(C3C(c4c[nH]c5ccccc45)=C(O)C(=O)N3CCCn3ccnc3)c[nH]c2c1 (stereo not drawn) [Compound 130, 3-Hydroxy-1-(3-imidazol-1-yl-propyl)-4-(1H-indol-3-yl)-5-(6-methyl-1H-indol-3-yl)-1,5-dihydro-pyrrol-2-one] | 1300
8 | O=C1C(O)=C(c2c[nH]c3ccccc23)C(C(F)(F)F)N1CCCn1ccnc1 (stereo not drawn) [Compound 131, 3-Hydroxy-1-(3-imidazol-1-yl-propyl)-4-(1H-indol-3-yl)-5-trifluoromethyl-1,5-dihydro-pyrrol-2-one] | 1300
9 | O=C1C(O)=C(c2c[nH]c3ccccc23)C(c2c[nH]c3ccccc23)N1CCCn1ccnc1 (stereo not drawn) [Compound 132, 3-Hydroxy-1-(3-imidazol-1-yl-propyl)-4,5-bis-(1H-indol-3-yl)-1,5-dihydro-pyrrol-2-one] | 400
10 | O=C1C(O)=C(c2c[nH]c3ccccc23)C(c2ncc[nH]2)N1CCCn1ccnc1 (stereo not drawn) [Compound 133, 3-Hydroxy-5-(1H-imidazol-2-yl)-1-(3-imidazol-1-yl-propyl)-4-(1H-indol-3-yl)-1,5-dihydro-pyrrol-2-one] | 1300
11 | O=C1C(O)=C(c2c[nH]c3ccccc23)C(Cc2ccccc2)N1CCCn1ccnc1 (stereo not drawn) [Compound 134, 5-Benzyl-3-hydroxy-1-(3-imidazol-1-yl-propyl)-4-(1H-indol-3-yl)-l 5-dihydro-pyrrol-2-one] | 400
12 | O=C1C(O)=C(c2c[nH]c3ccccc23)C(c2ccccn2)N1CCCn1ccnc1 (stereo not drawn) [Compound 135, 3-Hydroxy-1-(3-imidazol-1-yl-propyl)-4-(1H-indol-3-yl)-5-pyridin-2-yl-1,5-dihydro-pyrrol-2-one] | 40
13 | O=C1C(O)=C(c2c[nH]c3ccccc23)C(c2ccncc2)N1CCCn1ccnc1 (stereo not drawn) [Compound 136, 3-Hydroxy-1-(3-imidazol-1-yl-propyl)-4-(1H-indol-3-yl)-5-pyridin-4-yl-1,5-dihydro-pyrrol-2-one] | 40
14 | O=C1C(O)=C(c2c[nH]c3ccccc23)C(c2cccs2)N1CCCn1ccnc1 (stereo not drawn) [Compound 137, 3-Hydroxy-1-(3-imidazol-1-yl-propyl)-4-(1H-indol-3-yl)-5-thiophen-2-yl-1,5-dihydro-pyrrol-2-one] | 400
15 | O=C1C(O)=C(c2c[nH]c3ccccc23)C(C2CC2)N1CCCn1ccnc1 (stereo not drawn) [Compound 139, 5-Cyclopropyl-3-hydroxy-1-(3-imidazol-1-yl-propyl)-4-(1H-indol-3-yl)-1,5-dihydro-pyrrol-2-one] | 400
16 | O=C1C(O)=C(c2c[nH]c3ccccc23)C(c2ccco2)N1CCCn1ccnc1 (stereo not drawn) [Compound 140, 5-Furan-2-yl-3-hydroxy-1-(3-imidazol-1-yl-propyl)-4-(1H-indol-3-yl)-1,5-dihydro-pyrrol-2-one] | 400
17 | O=C1C(O)=C(c2c[nH]c3ccccc23)C(c2cccc(Cl)c2)N1CCCn1ccnc1 (stereo not drawn) [Compound 143, 5-(3-Chloro-phenyl)-3-hydroxy-1-(3-imidazol-1-yl-propyl)-4-(1H-indol-3-yl)-1,5-dihydro-pyrrol-2-one] | 40
18 | O=C1C(O)=C(c2c[nH]c3ccccc23)C(c2ccccc2F)N1CCCn1ccnc1 (stereo not drawn) [Compound 144, 5-(2-Fluoro-phenyl)-3-hydroxy-1-(3-imidazol-1-yl-propyl)-4-(1H-indol-3-yl)-1,5-dihydro-pyrrol-2-one] | 40

Results, then the compound that gave them:

Row | IC50 [nM] | Structure (SMILES)
19 | 40 | O=C1C(O)=C(c2c[nH]c3ccccc23)C(CO)N1CCCn1ccnc1 (stereo not drawn) [Compound 138, 3-Hydroxy-5-hydroxymethyl-1-(3-imidazol-1-yl-propyl)-4-(1H-indol-3-yl)-1,5-dihydro-pyrrol-2-one]
20 | 400 | CCCCC1C(c2c[nH]c3ccccc23)=C(O)C(=O)N1CCCn1ccnc1 (stereo not drawn) [Compound 141, 5-Butyl-3-hydroxy-1-(3-imidazol-1-yl-propyl)-4-(1H-indol-3-yl)-1,5-dihydro-pyrrol-2-one]
21 | 400 | CCC1C(c2c[nH]c3ccccc23)=C(O)C(=O)N1CCCn1ccnc1 (stereo not drawn) [Compound 142, 5-Ethyl-3-hydroxy-1-(3-imidazol-1-yl-propyl)-4-(1H-indol-3-yl)-1,5-dihydro-pyrrol-2-one]
22 | 400 | O=C1C(O)=C(c2c[nH]c3ccccc23)C(c2ccc(O)cc2)N1CCCn1ccnc1 (stereo not drawn) [Compound 145, 3-Hydroxy-5-(4-hydroxy-phenyl)-1-(3-imidazol-1-yl-propyl)-4-(1H-indol-3-yl)-1,5-dihydro-pyrrol-2-one]
23 | 400 | O=C1C(O)=C(c2c[nH]c3ccccc23)C(c2cccc(O)c2)N1CCCn1ccnc1 (stereo not drawn) [Compound 146, 3-Hydroxy-5-(3-hydroxy-phenyl)-1-(3-imidazol-1-yl-propyl)-4-(1H-indol-3-yl)-1,5-dihydro-pyrrol-2-one]
24 | 40 | O=C1C(O)=C(c2ccc(O)cc2)C(c2cc(Cl)cc(Cl)c2O)N1CCCn1ccnc1 (stereo not drawn) [Compound 147, 5-(3,5-Dichloro-2-hydroxy-phenyl)-3-hydroxy-4-(4-hydroxy-phenyl)-1-(3-imidazol-1-yl-propyl)-1,5-dihydro-pyrrol-2-one]
25 | 40 | Cc1ccc(C2C(c3ccc(O)cc3)=C(O)C(=O)N2CCCn2ccnc2)cc1 (stereo not drawn) [Compound 148, 3-Hydroxy-4-(4-hydroxy-phenyl)-1-(3-imidazol-1-yl-propyl)-5-p-tolyl-1,5-dihydro-pyrrol-2-one]
26 | 1300 | CCC/C=C/C1C(c2ccc(O)cc2)=C(O)C(=O)N1CCCn1ccnc1 (stereo not drawn) [Compound 149, 3-Hydroxy-4-(4-hydroxy-phenyl)-1-(3-imidazol-1-yl-propyl)-5-(pent-1-enyl)-1,5-dihydro-pyrrol-2-one]
27 | 40 | CCCC1C(c2ccc(O)cc2)=C(O)C(=O)N1CCCn1ccnc1 (stereo not drawn) [Compound 150, 3-Hydroxy-4-(4-hydroxy-phenyl)-1-(3-imidazol-1-yl-propyl)-5-propyl-1,5-dihydro-pyrrol-2-one]
28 | 40 | O=C1C(O)=C(c2ccc(O)cc2)C(c2cc[nH]n2)N1CCCn1ccnc1 (stereo not drawn) [Compound 151, 3-Hydroxy-4-(4-hydroxy-phenyl)-1-(3-imidazol-1-yl-propyl)-5-(1H-pyrazol-3-yl)-1,5-dihydro-pyrrol-2-one]
29 | 400 | O=C1C(O)=C(c2ccc(O)cc2)C(C(O)CO)N1CCCn1ccnc1 (stereo not drawn) [Compound 152, 5-(1,2-Dihydroxy-ethyl)-3-hydroxy-4-(4-hydroxy-phenyl)-1-(3-imidazol-1-yl-propyl)-1,5-dihydro-pyrrol-2-one]
30 | 2200 | CC(C)/C=C/C1C(c2ccc(O)cc2)=C(O)C(=O)N1CCCn1ccnc1 (stereo not drawn) [Compound 153, 3-Hydroxy-4-(4-hydroxy-phenyl)-1-(3-imidazol-1-yl-propyl)-5-(3-methyl-but-1-enyl)-1,5-dihydro-pyrrol-2-one]
